From paper PMC11726359, “Discovery of Rezatapopt (PC14586), a First-in-Class, Small-Molecule Reactivator of p53 Y220C Mutant in Development” (ACS Medicinal Chemistry Letters, 2024)
pIC50: −log10 of the molar value. Where two headings read alike, the source gives them in different places.

What was measured:
[1] = system: NUGC-3 tumor xenografts; assay: NUGC-3 tumor xenograft efficacy in nude mice; type: in vivo, mouse; conditions: for inhibition of tumor growth: oral, daily
Method: Compound 26 (rezatapopt; PC14586), which had the most favorable plasma exposure, was evaluated for its ability to inhibit the growth of NUGC-3 tumor xenografts in nude mice.
Study of C ompound 26 in NUGC-3 Xenograft
Female Balb/c nude mice, aged 4 to 6 weeks, were obtained from Envigo (Madison, WI). All mice were housed at the PMV Pharmaceuticals Vivarium. Mouse care and experimental procedures adhered to institutional guidelines for ethical use, with all research protocols approved by the Institutional Animal Care and Use Committees of PMV Pharmaceuticals. The mice were maintained at ambient temperatures of 68–72 °F, with 30–70% humidity, and a 12 -hour dark/light cycle.
NUGC-3 cells were resuspended at a concentration of 1×10^7 viable cells/mL in a 50:50 mixture of phosphate-buffered saline and Matrigel Matrix (Corning). Subsequently, 100 µL of the suspension was injected subcutaneously into the dorsal flankof the mice . Mice were selected and randomized into treatment groups based on tumor size.

[2] = Toxicological studies; conditions: result in words
[3] = target: T1, recombinant His-tag Y220C p53 DNA binding domain (Homo sapiens, UniProt P04637, Y220C); assay: TR-FRET DNA binding assay (SC150); type: biochemical
T1 construct: Y220C p53 DBD protein (amino acids #94-312); made in house
Text: At the outset of our hit generation campaign, several small molecules targeting the p53 Y220C mutant protein were identified. Two notable examples, supported by crystallographic data, were the compounds from the carbazole series[6] (PhiKan83) and the iodophenol series[7] (PK1596) (Figure 1). To assess the in vitro potency of the p53 Y220C reactivators, a time-resolved fluorescence resonance energy transfer (FRET) assay was developed. In this assay, recombinant His-tag Y220C p53 DNA binding domain binds to biotin-labeled consensus DNA, and the FRET signal is measured between the allophycocyanin-conjugated anti-His-tag antibody and europium-conjugated streptavidin. The […] concentration required to increase DNA binding by 1.5-fold (SC150) could then be determined. The carbazole compound (PhiKan83) enhanced DNA binding with an SC150 of 37.2 μM. […]
Time-Resolved Fluorescence Resonance Energy Transfer (TR-FRET) Assay
DNA binding activity was measured by the TR-FRET assay. In this assay, the recombinant His6-tag Y220C p53 DNA binding domain (DBD) protein binds to biotin labeled consensus DNA. The binding of recombinant His6-tag Y220C p53 DBD protein and biotin-labeled consensus DNA is detected by the fluorescence resonance energy transfer (FRET) between allophycocyanin (APC) conjugated anti-His6 tag antibody and Europium-(Eu) conjugated Streptavidin. Test compounds, at 2 mM stock in DMSO, were diluted t hr e e-f ol d in serial dilutions in DMSO and 1.2 µL per well were added into 384-well polypropylene black plates (NUNC). Subsequently, 30 µL per well of 181 nM recombinant His6-tag Y220C p53 DBD protein (amino acids #94-312) and 9.1 nM of APC conjugated anti-His6 tag antibody (Columbia Biosciences) in ice-cold Assay Buffer 1 (50 mM Tris-HCl, pH 7.4, 75 mM KCl, 0.75 mM DTT and 0.2 mg/mL bovine serum albumin [BSA]) was added. As a background control, 30 µL of Assay Buffer 1 containing 9.1 nM of APC anti-His6 antibody (no Y220C protein) was also added into a second set of serial diluted compound plates. The samples were centrifuged at 1,200 rpm (Eppendorf 5810R plate centrifuge) for 1 minute and incubated at room temperature (20 °C) for 15 min. The samples were then incubated at 27 °C in a water bath for 48 min. Afterwards, 5 µL per well of 145 nM biotin labeled oligonucleotide from a consensus DNA p53 response element (a DNA duplex with 5’ to 3’sequence of […]
and biotin attached to the 3’ end of the complementary DNA) and 8.8 nM Eu-conjugated streptavidin (Columbia Biosciences) in Assay Buffer 2 (50 mM Tris-HCl, pH 7.4, 75 mM KCl and 0.2 mg/mL BSA) were added. The samples were centrifuged at 1,200 rpm for 1 min and incubated at room temperature (20 °C) for 20 min. Assay signals were monitored by reading excitation at 340 nm, and emission fluorescence at 615 and 665 nm, on an Envision reader (Perkin El mer). Normalized TR -FRET assay signal (Rn) was calculated by the formula:
Rn = [(A − B a − C × (D − Bd))/(D − Bd)] × (Dc − B d),
C = (Ac − B a)/(Dc − B d), […]

[4] = Pharmacokinetic study in mice; conditions: 50 mg/kg
Method: (§1) Pharmacokinetic parameters were evaluated in female CD-1 mice. Animals received an oral gavage dose of 50 mg/kg of the test article. The test article was formulated in a solution containing 2% hydroxypropyl
(§2) cellulose and 0.5% Tween 80 in water. Blood samples were collected at 0.5, 1, 2, 4, 7, and 24 h post dose.
(§3) Blood samples were processed into plasma, and the concentrations of the test article were determined by
(§4) LC-MS/MS. P harmacokinetic parameters were calculated using the Phoenix WinNonlin 6.3 program,
(§5) employing a non- compartmental model 200.

[5] = system: TP53 Y220C mutant solid tumors; parameters: method as in doi:10.1158/1535-7163.TARG-23-LB_A25; conditions: cited from earlier work
[6] = system: NUGC-3, gastric cancer cell line with a TP53 Y220C mutation; assay: MTT cell proliferation assay; type: cell-based, human; conditions: for pIC50: Homo sapiens, NUGC-3, 120 h, NUGC-3 cells, five days incubation
Method: We also evaluated the effects of these compounds on the growth and viability of four cancer cell lines in vitro. Two of the cell lines (NUGC-3, gastric cancer cell line with a TP53 Y220C mutation and T3M-4, pancreatic carcinoma cell line) have the TP53 Y220C mutation leading to the p53 Y220C mutant protein; SJSA-1 is a p53 WT cell line, and NUGC-3-KO is an isogenic p53 knockout cell line.[11] After incubating the cells with the compounds for five days, cell viability was measured using the 3-(4,5-dimethylthiazol-2-yl)-2,5-diphenyltetrazolium bromide (MTT) assay.
C = (Ac − B a)/(Dc − B d),
Prism (GraphPad) or XLfit software (IDBS).
Cells were seeded at an appropriate
Compounds were tested at eight concentrations with 2-fold serial dilutions. […]
with a reference wavelength of 650 nm. […]
untreated cells (control). […]

[7] = female, CD-1, mouse, in vivo, po, 50 mg/kg
Method: as §1, §2, §3, §4, §5

[8] = Caco-2 permeability; type: in vitro ADME; conditions: human
Text: Significant efforts were dedicated to the optimization of compound 13, and a successful approach involved fluorine substitution of the piperidine ring. Fluorine substitution often plays a crucial role in medicinal chemistry, exerting a substantial impact on the characteristics of drug molecules.[12],[13] Incorporation of fluorine atoms can yield diverse effects and improvements in a drug’s pharmacological properties. In the case of the piperidine ring in compound 13, several key effects of fluorine substitution were predicted, including enhanced hydrogen bonding with Threonine-150, increased conformational rigidity of the piperidine ring, and reduced basicity. […] We postulated that the fluorine atom on the piperidine ring of compound 22, which preferentially stays in the axial position, can form a better hydrogen bond with the N-H group of Threonine-150. The enhanced cellular potency of compound 22 can be attributed to the enhanced permeability. […] Recently, insights into the conformational behavior of cis-fluorinated piperidines were reported.[14]

[9] = Half-life in human liver microsomes; type: in vitro ADME; conditions: read-out: half-life (T1/2)
Text: However, there was a significant improvement in potency with fluorine substitution at the hydrophobic anchor (R3 = CF3, compound 7). […] The trifluoromethyl group remained the best anchor throughout the hit expansion and drug discovery campaign. Assessment of the 4-substituted indole compounds (R1 = H, compounds 8–14) led to a breakthrough regarding the potency of the compounds. Our molecular modeling predicted that the side chain of Threonine-150 within the p53 Y220C protein would form a hydrogen bond with the ligand. This interaction helped to orient the ligand in the binding pocket of the p53 Y220C mutant protein and enhance other interactions such as hydrophobic and van der Waals interactions. […] With the nitrogen atom in place, various polar groups were assessed, and it was determined that basic nitrogen, such as that in the piperidine ring, was preferred for maintaining the potency of the compound (R2 = S5). Many substituents can be tolerated for the aromatic ring occupying the subsite.

[10] = Table 3, concentration required to increase DNA binding by 1.5-fold
[11] = Table 2, concentration required to increase DNA binding by 1.5-fold
[12] = Table 1, concentration required to increase DNA binding by 1.5-fold

Structure (SMILES)	SC150 [3, 10] [nM]	Mouse PK Exposure AUC0-last ([4]; Table 3, PO) [µg·h/mL]	Mouse PK Exposure Cmax ([4]; Table 3, PO) [µg/mL]	pIC50 ([6]; Table 3)	SC150 [3, 11] [nM]	Mouse PK Exposure AUC0-last ([4]; Table 2, PO) [µg·h/mL]	Mouse PK Exposure Cmax ([4]; Table 2, PO) [µg/mL]	pIC50 ([6]; Table 2)	also measured
COc1cc(C(=O)N2CC3(COC3)C2)ccc1NCC#Cc1cc2c(N[C@@H]3CCN(C)C[C@@H]3F)cccc2n1CC(F)(F)F [Compound 28, [4-[3-[4-[[(3S,4R)-3-fluoro-1-methyl-4-piperidyl]amino]-1-(2,2,2-trifluoroethyl)indol-2-yl]prop-2-ynyl-amino]-3-methoxy-phenyl]-(2-oxa-6-azaspiro[3.3]heptan-6-yl)methanone]	7	–	–	6.34	–	–	–	–	Mouse PK Exposure AUC0-last [7]: 15.328 µg·h/mL; Mouse PK Exposure Cmax [7]: 2.747 µg/mL
COc1cc(S(C)(=O)=O)ccc1NCC#Cc1cc2c(N[C@H]3CCN(C)C[C@H]3F)cccc2n1CC(F)(F)F [Compound 21, N-[(3R,4S)-3-fluoro-1-methyl-4-piperidyl]-2-[3-(2-methoxy-4-methylsulfonyl-anilino)prop-1-ynyl]-1-(2,2,2-trifluoroethyl)indol-4-amine]	–	–	–	–	20	23.233	2.353	5.64	–
COc1cc(C(=O)O)ccc1NCC#Cc1cc2c(N[C@@H]3CCN(C)C[C@@H]3F)cccc2n1CC(F)(F)F [Compound 24, 4-((3-(4-(((3S,4R)-3-fluoro-1-methylpiperidin-4-yl)amino)-1-(2,2,2-trifluoroethyl)-1H-indol-2-yl)prop-2-yn-1-yl)amino)-3-methoxybenzoic acid]	11	57.882	27.7	6.00	–	–	–	–	tumor growth inhibition ([1]; 150 mg/kg, same xenograft model): 54%
COc1cc(S(C)(=O)=O)ccc1NCC#Cc1cc2c(NC3CCN(C)CC3)cccc2n1CC(F)(F)F [Compound 13]	–	–	–	–	23	3.545	0.903	5.68	SC150 [3, 12]: 23 nM; Papp [8]: 118 nm/s
CCn1c(C#CCNc2ccccc2)cc2cc(CNC)ccc21 [Compound 1, N-[3-[1-ethyl-5-(methylaminomethyl)indol-2-yl]prop-2-ynyl]aniline]	–	–	–	–	–	–	–	–	SC150 ([3]; Figure 1, enhancement of DNA binding): 13600 nM; SC150 [3, 12]: 13600 nM; half-life [9]: 4 min

More lines, main results first:

SC150 [3, 10] [nM]	Mouse PK Exposure AUC0-last ([4]; Table 3, PO) [µg·h/mL]	Mouse PK Exposure Cmax ([4]; Table 3, PO) [µg/mL]	pIC50 ([6]; Table 3)	SC150 [3, 11] [nM]	Mouse PK Exposure AUC0-last ([4]; Table 2, PO) [µg·h/mL]	Mouse PK Exposure Cmax ([4]; Table 2, PO) [µg/mL]	pIC50 ([6]; Table 2)	Structure (SMILES)	also measured
9	163.342	16.6	6.30	–	–	–	–	CNC(=O)c1ccc(NCC#Cc2cc3c(N[C@@H]4CCN(C)C[C@@H]4F)cccc3n2CC(F)(F)F)c(OC)c1 [Compound 26]	tumor regression ([1]; 100 mg/kg, nude mice): 80%; effect on established human tumor xenografts harboring TP53 Y220C ([1]; mouse models, well-tolerated doses, result in words): tumor inhibition and regression; inhibition of tumor growth ([1]; 25 mg/kg, nude mice): 33%; inhibition of tumor growth ([1]; 50 mg/kg, nude mice): 71%; safety profile in toxicological studies [2]: favorable safety profile; clinical efficacy in Phase 1 clinical trials ([5]; heavily pretreated patients, solid tumors harboring TP53 Y220C, listed as rezatapopt): single-agent clinical efficacy was achieved; safety profile in Phase 1 clinical trials ([5]; within the efficacious dose range): favorable safety profile
8	0.117	0.054	6.24	–	–	–	–	COc1cc(C(=O)NCC(O)CO)ccc1NCC#Cc1cc2c(N[C@@H]3CCN(C)C[C@@H]3F)cccc2n1CC(F)(F)F (stereo partly drawn) [Compound 29, N-(2,3-dihydroxypropyl)-4-[3-[4-[[(3S,4R)-3-fluoro-1-methyl-4-piperidyl]amino]-1-(2,2,2-trifluoroethyl)indol-2-yl]prop-2-ynylamino]-3-methoxy-benzamide]	–
8	39.774	4.473	6.35	–	–	–	–	COc1cc(C(N)=O)ccc1NCC#Cc1cc2c(N[C@@H]3CCN(C)C[C@@H]3F)cccc2n1CC(F)(F)F [Compound 25, 4-[3-[4-[[(3S,4R)-3-fluoro-1-methyl-4-piperidyl]amino]-1-(2,2,2-trifluoroethyl)indol-2-yl]prop-2-ynyl-amino]-3-methoxy-benzamide]	–
–	–	–	6.49	8	12.567	2.103	6.52	COc1cc(S(C)(=O)=O)ccc1NCC#Cc1cc2c(N[C@@H]3CCN(C)C[C@@H]3F)cccc2n1CC(F)(F)F [Compound 22, N-[(3S,4R)-3-fluoro-1-methyl-4-piperidyl]-2-[3-(2-methoxy-4-methylsulfonyl-anilino)prop-1-ynyl]-1-(2,2,2-trifluoroethyl)indol-4-amine]	fold increased potency compared with compound 13 ([6]; MTT assay, vs compound 13): approximately 7 fold; Papp [8]: 199 nm/s
